# Source: patent US20250011365A1, “ECHINOCANDIN-BASED DRUG, AND PREPARATION METHOD THEREFOR AND USE THEREOF” (Shenzhen Sungening Biological Co., Ltd, priority 2023, published 2025)
# Numbered stars: 1 amine (or outer) side, 2 acyl side, 3 side chain; on linkers, the order of the positions; unused ones are H or OH. Bridge positions count the residues as written; N and C are the ends. Square brackets hold non-standard residues; d marks the D form. Peptide text beside a SMILES is read from it. * marks the point of attachment. Orn(4R-OH,5R-OCH2CH2NMe3+) = C[N+](C)(C)CCO[C@@H](N[*:3])[C@H](O)C[C@H](N[*:1])C(=O)[*:2]; hTyr(3S-OH,4S-OH) = N[C@H](C(=O)O)[C@H](O)[C@@H](O)c1ccc(O)cc1; X1 = CCCCCOc1cc(F)c(C#Cc2ccc3cc(C(=O)*)ccc3c2)cc1F; Pro(3S-OH,4S-Me) = C[C@H]1CN[C@H](C(=O)O)[C@H]1O; Hyp = O=C(O)[C@@H]1C[C@@H](O)CN1
# Tests used:
# [1] = rat, in vivo, iv
# C. krusei ATCC 6258 = test: MIC assay, Candida standard strain (CLSI M27-A3); assay type: cell-based; conditions: Pichia kudriavzevii, ATCC6258; C. krusei ATCC 6258 (quality-control strain); 24 h, 35° C.
# Procedure: (§1) After gradient dilution of test compounds, an MIC assay was performed on a Candida standard strain, and an MEC assay was performed on an Aspergillus standard strain. […] A cryopreserved strain was passaged at least 2 times. A single colony was picked and resuspended in a physiological saline or sterile water tube, and the tube was subjected to vortex shaking. The Candida suspension was adjusted to 0.5 McF (1×10^6-5×10^6 CFU/mL) at a wavelength of 530 nm by using a spectrophotometer. After being diluted 50 times with physiological saline, the Candida suspension was diluted 20 times with 1×RPMI 1640 broth (1×10^3-5×10^3 CFU/mL). 10 μL of the diluted Candida suspension was coated on an SDA plate for colony counting, with a range of about 10-50 single colonies. After a prepared drug sensitive plate was completely dissolved at room temperature, the Candida suspension was added to the 96-well plate by using a multi-channel pipettor at 100 μL/well. At this time, the concentration of Candida in each well should be 0.5×10^3-2.5×10^3 CFU/mL. A yeast-type fungus assay plate was placed in an incubator, and incubated for 24 h at 35° C. and 85% humidity, and then the MIC values were read. For echinocandin-based drugs, Aspergillus was incubated for 21-26 h at 28° C., and then the MEC results were read. Yeast-type fungi: A 96-well plate was attached with a disposable parafilm, shaken for uniformly mixing, and observed with naked eyes by using a plate reader microscope. […] Pictures were taken and saved by using an automated plate reader.
# [2] = system: Candida albicans ATCC MYA-1023; test: MIC assay, Candida standard strain (CLSI M27-A3); assay type: cell-based; conditions: 24 h, 35° C.
# Procedure: as §1
# C. tropicalis ATCC 750 = test: MIC assay, Candida standard strain (CLSI M27-A3); assay type: cell-based; conditions: ATCC750, 24 h, 35° C.
# Procedure: as §1
# [3] = system: C. parapsilosis ATCC 22019; test: MIC assay, Candida standard strain (CLSI M27-A3); assay type: cell-based; conditions: Lodderomyces parapsilosis, ATCC22019; C. parapsilosis ATCC 22019 (quality-control strain); 24 h, 35° C.
# Procedure: as §1
# [4] = system: Candida albicans ATCC 90029; test: MIC assay, Candida standard strain (CLSI M27-A3); assay type: cell-based; conditions: ATCC90029, 24 h, 35° C.
# Procedure: as §1
# [5] = system: Candida albicans CICC 1943; test: MIC assay, Candida standard strain (CLSI M27-A3); assay type: cell-based; conditions: CICC1943, 24 h, 35° C.
# Procedure: as §1
# [6] = system: Candida albicans CMCC 98001; test: MIC assay, Candida standard strain (CLSI M27-A3); assay type: cell-based; conditions: CMCC98001, 24 h, 35° C.
# Procedure: as §1
# [7] = system: Candida albicans ATCC 64124; test: MIC assay, Candida standard strain (CLSI M27-A3); assay type: cell-based; conditions: ATCC64124, 24 h, 35° C.
# Procedure: as §1
# [8] = system: Candida albicans ATCC 10231; test: MIC assay, Candida standard strain (CLSI M27-A3); assay type: cell-based; conditions: ATCC10231, 24 h, 35° C., >50% growth inhibition
# Procedure: as §1
# [9] = system: Candida albicans ATCC MYA-2876; test: MIC assay, Candida standard strain (CLSI M27-A3); assay type: cell-based; conditions: 24 h, 35° C.
# Procedure: as §1
# [10] = system: Candida albicans ATCC 90028; test: MIC assay, Candida standard strain (CLSI M27-A3); assay type: cell-based; conditions: ATCC90028, 24 h, 35° C., >50% growth inhibition
# Procedure: as §1
# [11] = system: Candida albicans ATCC MYA-4788; test: MIC assay, Candida standard strain (CLSI M27-A3); assay type: cell-based; conditions: 24 h, 35° C.
# Procedure: as §1
# [12] = system: Candida albicans ATCC MYA-574; test: MIC assay, Candida standard strain (CLSI M27-A3); assay type: cell-based; conditions: 24 h, 35° C.
# Procedure: as §1
# [13] = system: Candida albicans ATCC MYA-427; test: MIC assay, Candida standard strain (CLSI M27-A3); assay type: cell-based; conditions: 24 h, 35° C.
# Procedure: as §1
# [14] = system: Candida albicans ATCC 14053; test: MIC assay, Candida standard strain (CLSI M27-A3); assay type: cell-based; conditions: ATCC14053, 24 h, 35° C.
# Procedure: as §1
# [15] = system: Candida albicans ATCC 76485; test: MIC assay, Candida standard strain (CLSI M27-A3); assay type: cell-based; conditions: ATCC76485, 24 h, 35° C.
# Procedure: as §1
# C. glabrata ATCC 15126 = test: MIC assay, Candida standard strain (CLSI M27-A3); assay type: cell-based; conditions: Nakaseomyces glabratus, ATCC15126, 24 h, 35° C.
# Procedure: as §1
# [16] = system: Candida albicans ATCC 18804; test: MIC assay, Candida standard strain (CLSI M27-A3); assay type: cell-based; conditions: ATCC18804, 24 h, 35° C.
# Procedure: as §1
# [17] = system: Cryptococcus neoformans ATCC 208821; test: MIC assay, yeast-type fungi (CLSI M27-A3); assay type: cell-based; conditions: ATCC208821, 24 h, 35° C.
# [18] = system: Pichia guilliermondii ATCC 6260; test: MIC assay, yeast-type fungi (CLSI M27-A3); assay type: cell-based; conditions: Meyerozyma guilliermondii, ATCC6260, 24 h, 35° C.
# Procedure: as §1
# in vivo = conditions: SD, rat, iv
# [19] = system: Aspergillus fumigatus ATCC 204305; test: MEC assay, Aspergillus standard strain (CLSI M38-A2); assay type: cell-based; conditions: 21-26 h, 28° C.
# Procedure: After gradient dilution of test compounds, an MIC assay was performed on a Candida standard strain, and an MEC assay was performed on an Aspergillus standard strain.
# The colonies on the plate were covered with 0.85% physiological saline (1 mL) or sterile water (polysorbate 20 was added to a final concentration of 0.1%-0.01%). […] The resuspension of spore hyphae was transferred to a sterile test tube, and left to stand for 3-5 min to precipitate heavier particles. The homogeneous suspension on the upper layer was transferred to a new sterile test tube, and the tube was capped closely, and subjected to vortex shaking for 15 s (note: the suspension can produce an aerosol when the cap is reopened). The concentration of the suspension was adjusted to an OD value of 0.09-0.13 at 530 nm by using a spectrophotometer. […] Within 2 h after dilution, 100 μL of the diluted suspension was added to each well in a 96-well plate (the concentration of spores in the final drug sensitive plate should be 0.4×10^4-5×10^4 CFU/mL).
# In order to accurately determine MEC value, vortex oscillation should not be allowed before reading the plate.
smiles,measurement,setting,value
"CCCCCOc1cc(F)c(C#Cc2ccc3cc(C(=O)N[C@H]4C[C@@H](O)[C@@H](OCC[N+](C)(C)C)NC(=O)[C@@H]5[C@@H](O)[C@@H](C)CN5C(=O)[C@H]([C@@H](C)O)NC(=O)[C@H]([C@H](O)[C@@H](O)c5ccc(O)cc5)NC(=O)[C@@H]5C[C@@H](O)CN5C(=O)[C@H]([C@@H](C)O)NC4=O)ccc3c2)cc1F [Example 16] (X1-[Orn(4R-OH,5R-OCH2CH2NMe3+)]T[Hyp][hTyr(3S-OH,4S-OH)]T[Pro(3S-OH,4S-Me)]; lactam 1-C)",drug exposure level (Cmax and AUC) and half-life (T1/2) in the blood plasma compared with rezafungin,[1],significantly higher
same,MIC,C. krusei ATCC 6258,0.06 µg/mL
same,MIC,[2],≤ 0.015 µg/mL
same,MIC,C. tropicalis ATCC 750,≤ 0.015 µg/mL
same,MIC,[3],0.5 µg/mL
same,MIC,[4],≤ 0.015 µg/mL
same,MIC,[5],0.03 µg/mL
same,MIC,[6],≤ 0.015 µg/mL
same,MIC,[7],≤ 0.015 µg/mL
same,MIC,[8],0.03 µg/mL
same,MIC,[9],≤ 0.015 µg/mL
same,MIC,[10],0.03 µg/mL
same,MIC,[11],≤ 0.015 µg/mL
same,MIC,[12],≤ 0.015 µg/mL
same,MIC,[13],0.03 µg/mL
same,MIC,[14],≤ 0.015 µg/mL
same,MIC,[15],≤ 0.015 µg/mL
same,MIC,C. glabrata ATCC 15126,0.06 µg/mL
same,MIC,[16],≤ 0.015 µg/mL
same,MIC,[17],8 µg/mL
same,MIC,[18],0.25 µg/mL
same,AUC(0-inf),in vivo; 2.5 mg/kg,275 µg·h/mL
same,AUC(0-t),in vivo; 2.5 mg/kg,206 µg·h/mL
same,Cmax,in vivo; 2.5 mg/kg,6080 ng/mL
same,MRT last,in vivo; 2.5 mg/kg,26.1 h
same,Vd,in vivo; 2.5 mg/kg,0.49 L/kg
same,clearance,in vivo; 2.5 mg/kg,0.15 mL/min/kg
same,half-life,in vivo; 2.5 mg/kg,37.3 h
same,AUC(0-inf),in vivo; 5 mg/kg,424 µg·h/mL
same,AUC(0-t),in vivo; 5 mg/kg,326 µg·h/mL
same,Cmax,in vivo; 5 mg/kg,12000 ng/mL
same,MRT last,in vivo; 5 mg/kg,24.2 h
same,Vd,in vivo; 5 mg/kg,0.591 L/kg
same,clearance,in vivo; 5 mg/kg,0.2 mL/min/kg
same,half-life,in vivo; 5 mg/kg,34.8 h
same,MEC,[19],≤0.015 µg/mL
